Results published in US20170341980A1, “NOBLE GAS NEUROPROTECTION AND NEUROREGENERATION FROM TREATMENT RELATED NEUROTOXICITY” (NOBLIS THERAPEUTICS, INC., priority 2016, published 2017).

Tests used:
[1] = tested on: patients with brain metastasis; assay: Clinical trial: cognitive function in brain metastasis patients under fractionated radiation, xenon versus air; format: in vivo, human; details: vs air
Method: (§1) A clinical trial is conducted in 20 patients with brain metastasis who receive 2 Gy to 100 Gy fractionated over 2-8 weeks. 10 patients are treated with 10-20 liters of 30% xenon every other day during radiation exposure. An additional 10 patients are treated with similar radiation regimen and administered 10-20 liters of air every other day during radiation exposure. […] Furthermore, verbal memory, as measured by the Hopkins Verbal Learning Test-Revised (HVLT-R), Cognitive flexibility as measured with the Controlled Oral Word Association (COWA), Word Fluency has measured with the Controlled Oral Word Association (COWA), Working memory has measured with the Wechsler Adult Intelligence Scale—Digit Span, Processing speed has measured with the Wechsler Adult Intelligence Scale—Digit Symbol, Motor dexterity has measured with the Grooved Pegboard (GP), Functional assessment, as measured by the Functional Assessment of Cancer Therapy-Brain (FACT-Br), all improved in the xenon treated group.

[2] = tested on: tumor growth; assay: Clinical trial: tumor growth in brain metastasis patients receiving xenon versus air controls; format: in vivo, human; details: patients receiving xenon as compared to air controls
Method: as §1

[3] = 10-20 liters of 30% xenon every other day during radiation exposure

[Xe] [xenon]
cognitive function as measured by HVLT-R Total Recall score (verbal learning and memory test) ([1]; 10-20 liters of 30% xenon every other day during radiation exposure (2 Gy to 100 Gy fractionated over 2-8 weeks), at 3, 8, 12, and 24 weeks): preservation in cognitive function | Cognitive flexibility as measured with the Controlled Oral Word Association (COWA) [1, 3]: improved | Functional assessment, as measured by the Functional Assessment of Cancer Therapy-Brain (FACT-Br) [1, 3]: improved | Motor dexterity measured with the Grooved Pegboard (GP) [1, 3]: improved | Processing speed measured with the Wechsler Adult Intelligence Scale—Digit Symbol [1, 3]: improved | Word Fluency measured with the Controlled Oral Word Association (COWA) [1, 3]: improved | Working memory measured with the Wechsler Adult Intelligence Scale—Digit Span [1, 3]: improved | verbal memory, as measured by the Hopkins Verbal Learning Test-Revised (HVLT-R) [1, 3]: improved | acceleration of tumor growth [2]: No acceleration of tumor growth
